Tests used:
Format in all cases: in vivo
[1] = test system: Cotton Aphid (Aphis gossypll); assay: Testing with Cotton Aphid, track sprayer application on infested cotton plants; details: for LC90: cotton aphid on cotton plants, track sprayer approx. 200 L/ha, count of living non-winged aphids
Procedure: Alcala cotton plants were grown from seed in 7-cm pots under greenhouse conditions until they reached 35 to 40 cm in height; approximately four weeks old with 5 to 6 true leaves. The plants were then stripped of all foliage except for the two uppermost true leaves. Two days prior to application, heavily infested leaf sections from a cotton aphid colony were cut and placed on each untreated leaf surface. Over the two days, all stages of the aphids abandon the excised host material and migrate to the succulent growth, predominantly the lower surface of the leaves. Plants were checked prior to application for even infestation levels. Treatments consisted of 4 replicates (plants) each with 2 leaves per plant.
Formulation of technical compound was in a solvent solution. For the top rate of each compound, 20 milligrams of technical material was dissolved in 2 milliliters (ml) of a 9:1 mixture of acetone:ethanol solvent. Once dissolved, an additional 18-ml of the solvent mix was added to yield a 1 mg/ml spray solution. Additional rates were then prepared by serial dilution.
Application was made by an automated tracksprayer (RC-Insecticide #1, Serial MS-9′-002, MANDEL Scientific Company Ltd.) equipped with a single TX6 SS hollow cone nozzle to simulate an over-the-top application by a boom sprayer. Spray pressure was set at 50 PSI, and the nozzle head was set approximately 40 cm above the leaf surface (depending on the leaf position it ranged from 35-45 cm). Track velocity and all other settings were calibrated to deliver approximately 200 L/ha. After application and drying, the plants were transferred and kept in controlled environment until assessment.
Assessment of compound efficacy is evaluated by counting all living non-winged stage aphids infesting each replicate using a dissecting microscope.

[2] = test system: Sweetpotato Whitefly, Bemisia tabaci; assay: Testing with Sweetpotato Whitefly, track sprayer application on egg-infested cotton plants; details: for LC90: sweetpotato whitefly on cotton plants, track sprayer, assessment at 13 days after application
Procedure: Greenhouse-grown cotton plants (ca. five weeks old, grown in 7×7 cm pots containing ca. 231 cm^3 of potting soil mixture) were prepared for whitefly infestation by removing all foliage except the first or second pair of fully expanded true leaves. These plants are then moved into the whitefly colony room of the insectary (temperature maintained at 27° C.), where they are surrounded by cotton or velvetleaf plants infested with all life stages of B. tabaci. Initial movement of B. tabaci adults onto the prepared cotton plants is encouraged by gently shaking the foliage of the surrounding infested cotton and velvetleaf foliage using a 1.5-meter long willow branch. The prepared plants are left in place within the whitefly colony, where they are exposed to adult female B. tabaci oviposition for ca. 48 hours.
At the end of the oviposition exposure period, adult whiteflies are dislodged from the prepared plants by passing compressed air just above the leaves while the leaves are gently disturbed by hand for ca. 15 seconds. The prepared plants, which are now infested with eggs of B. tabaci, are removed from the insectary and any remaining adults are removed from the foliage with a hand-held vacuum fitted with a cage to trap insects. Infested plants are then selected at random and arranged into treatment groups of two or three plants each. Leaves of plants to receive different treatments are separated by a distance of at least 5 cm.
Compounds are applied within 24 hours of removing cotton plants from exposure to oviposition within the B. tabaci colony. Immediately after application, plants are moved to a holding room with a temperature of 30° C. and relative humidity of ca. 60%. Compound efficacy was observed by an assessment at 13 days after application. At this evaluation time, whitefly nymphs that have successfully developed to the third and fourth nymphal stadia can be easily seen on the underside of each cotton leaf with the aid of an illuminated magnifying lens (equipped with a circular fluorescent tube). […]

[3] = test system: Cat Flea (Cntenocephalides felis); assay: Testing with Cat Flea, treated media infested with eggs; details: eggs held five weeks, adult fleas counted
Procedure: Media is prepared by mixing 1 part dried bovine blood, 4 parts ground dog food pellets, and 95 parts clean sand. Compounds are dissolved in acetone and further diluted in acetone to yield the required range of concentrations. The acetone solutions are applied to measured amounts of media in small dishes. Final concentrations are expressed as micrograms of compound per gram of media. After the acetone has dried, the treated media is dispensed into small glass vials and infested with 5 to 10 cat flea (Cntenocephalides fells) eggs. The vials are loosely capped and held under controlled conditions for five weeks. Activity is assessed based on the average number of adult cat fleas present in the treated vials compared to the average number of adult cat fleas in the media

Compound	LC90 [1]	times more Comparative Compound A needed to reach the LC90 level than Compound Three ([1]; cotton aphid, ratio of LC90 values)	LC90 [2]	times more Comparative Compound A needed to reach the LC90 level than Compound Three ([2]; sweetpotato whitefly, ratio of LC90 values)	control of cat fleas ([3]; 0.1 μg/g rate in media)	control of cat fleas ([3]; 0.01 μg/g rate in media)
O=[N+]([O-])/C=C1\NCCN1Cc1ccc(Cl)nc1 [Comparative Compound A]	9.1 grams per hectare	~11.7 times	6.66 grams per hectare	~2.7 times	–	–
CN/C(=C(/C=O)[N+](=O)[O-])N(C)Cc1ccc(Cl)nc1 [Compound One]	–	–	–	–	100%	–
O=C/C(=C1/NCCN1Cc1ccc(Cl)nc1)[N+](=O)[O-] [Compound Three]	less than 0.78 grams per hectare	–	less than 2.52 grams per hectare	–	96%	81%

Reference: patent US7375122B2, “Compounds useful as pesticides” (Dow AgroSciences LLC, priority 2002, dated 2008)
